Patent US20110177105A1, “Novel Selective Inhibitors of Ubiquitin Specific Protease 7, the Pharmaceutical Compositions Thereof and Their Therapeutic Applications” (priority 2010, published 2011)

Molecular target: USP7 (Homo sapiens, UniProt Q93009)
Experiment: HA-Ub-VS labeling of active DUBs in HCT116 cell lysates
Format: biochemical
Parameters: endogenous in cells; host or cells: HCT116 (inducible USP7 shRNA line) cell lysate
Details: NEM 5 mM
Excerpt: The C-terminally modified vinyl sulfone derivative of ubiquitin, UbVS, was clearly helpful for a direct visualization of active DUBs in cells. This tool, which binds covalently to the cysteine active site of deubiquitinating enzymes, was successfully applied to discover and characterize novel ubiquitin/ubiquitin-like proteases and to profile active deubiquitinating enzymes in normal, virus-infected, and malignant cells (Borodovsky et al., Chem Biol 2002, 9, 1149-1159, Hemelaar et al., Mol Cell Biol 2004, 24, 84-95, Ovaa et al., Proc Natl Acad Sci USA 2004 101, 2253-2258).
The HA-Ub-VS probe (Hemagglutin tag-Ubiquitin-Vinyl Sulfone) was used in this study to directly visualize the activity of all deubiquitinating enzymes from cell lysates. This tool was used to evaluate the activity/specificity of our small molecule compounds on USP7 relative to all deubiquitinating enzymes active in physiological conditions.
Inducible USP7 shRNA HCT116 cells (previously treated with or without Doxycycline (2 μg/ml) for 4 days) as well as HEK293 cells were harvested and lysed on ice with a non denaturating buffer containing Tris pH 7.4, 50 mM; NaCl, 150 mM; MgCl2, 5 mM; EDTA, 0.5 mM; DTT, 2 mM; ATP, 2 mM; NP40, 0.5% and glycerol, 10%. Samples were incubated at 4° C. for 1 hour and clarified. Proteins were then quantified by Bradford method (Bio-Rad Protein Assay). 25 μg of proteins from native cell lysates were treated with compounds of examples 14 and 5 (from 100 μM to 3 μM) or with NEM (N-Ethylmaleimide, a thiol-reactive compound, 5 mM) for 2 hours at room temperature. The ubiquitin labeling reaction was initiated by the addition of HA-Ub-VS (8 μg/ml) in labeling buffer (Tris pH 7.6, 50 mM; MgCl2, 5 mM; EDTA, 0.5 mM; DTT, 2 mM; ATP, 2 mM; sucrose, 250 mM) and incubated at room temperature for 30 min. Samples were next heated at 100° C. for 10 minutes and briefly sonicated. They were resolved by SDS-polyacrylamide gel electrophoresis (SDS-PAGE), transferred to a nitrocellulose membrane and probed with antibodies against USP7 (Bethyl Lab, A300-034A), HA (BabCO, MMS-101P), and actin (Sigma, A2066). Horseradish peroxidase (HRP)-conjugated anti-mouse (Jackson Laboratories, 115-035-003) or HRP-conjugated anti-rabbit (Cell Signaling, 7074) antibodies were used as secondary antibodies. Signals were detected by enhanced chemiluminescence (ECL; Amersham) according to the reagent manufacturer's instructions.

Chain of USP7 (Q93009 whole entry): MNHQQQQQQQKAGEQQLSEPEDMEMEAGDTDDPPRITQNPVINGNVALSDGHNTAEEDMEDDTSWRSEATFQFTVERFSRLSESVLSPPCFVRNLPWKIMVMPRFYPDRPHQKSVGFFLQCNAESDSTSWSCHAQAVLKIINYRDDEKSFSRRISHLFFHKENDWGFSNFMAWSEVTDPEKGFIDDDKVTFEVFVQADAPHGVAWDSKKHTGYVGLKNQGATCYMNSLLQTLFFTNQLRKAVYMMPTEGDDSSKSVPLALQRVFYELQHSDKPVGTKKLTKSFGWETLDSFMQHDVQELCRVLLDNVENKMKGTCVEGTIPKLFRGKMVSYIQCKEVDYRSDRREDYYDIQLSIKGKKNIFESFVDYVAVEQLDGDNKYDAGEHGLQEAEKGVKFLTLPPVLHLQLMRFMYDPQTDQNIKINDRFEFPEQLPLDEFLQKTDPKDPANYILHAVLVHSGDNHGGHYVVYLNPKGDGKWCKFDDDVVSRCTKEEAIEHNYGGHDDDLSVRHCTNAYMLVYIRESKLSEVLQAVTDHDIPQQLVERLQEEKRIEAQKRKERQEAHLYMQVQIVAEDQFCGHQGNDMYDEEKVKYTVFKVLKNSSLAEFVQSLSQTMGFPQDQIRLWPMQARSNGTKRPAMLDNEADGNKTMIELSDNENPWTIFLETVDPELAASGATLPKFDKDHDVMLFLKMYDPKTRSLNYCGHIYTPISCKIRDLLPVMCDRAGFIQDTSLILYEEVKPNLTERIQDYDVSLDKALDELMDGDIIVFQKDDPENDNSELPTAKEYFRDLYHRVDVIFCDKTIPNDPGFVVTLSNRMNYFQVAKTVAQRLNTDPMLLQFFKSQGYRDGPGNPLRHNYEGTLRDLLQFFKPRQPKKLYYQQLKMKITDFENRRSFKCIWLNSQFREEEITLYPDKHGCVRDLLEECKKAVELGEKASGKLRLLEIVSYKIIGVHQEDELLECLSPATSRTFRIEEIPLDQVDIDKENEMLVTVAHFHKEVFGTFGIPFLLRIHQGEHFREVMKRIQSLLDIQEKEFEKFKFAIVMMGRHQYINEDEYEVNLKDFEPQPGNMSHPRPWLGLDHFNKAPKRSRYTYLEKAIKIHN

CCN1C(=O)C=CC1=O [NEM, N-Ethylmaleimide, reference compound]
HA-Ub-VS labeling of active DUBs: inhibited
